Measurements from US20080063643A1, “Peptide Derived From Hepatitis C Virus” (priority 2003, published 2008).

Test system: peptide-reactive IgG
Experiment: ELISA of anti-C-35 and anti-NS5A-2132 IgG in sera: cross reactivity, HLA and genotype restriction (Example 3)
Type: binding, human
Source text: Two peptides with a purity of 90% or more were purchased from BIOSYNTHESIS (Lewisville, Tex.): HCV-1b core protein 35-44 ([…] (SEQ ID NO: 1) capable of inducing an HLA-A2-restricted CTL activity) and HCV-1b NS5A protein 2132-2140 ([…] (SEQ ID NO: 2) capable of inducing an HLA-A24-restricted CTL activity). As a negative control, peptides derived from HIV with an HLA-A2-binding motif ([…] (SEQ ID NO: 64)) and an HLA-A24-binding motif ([…] (SEQ ID NO: 63)) were used.
The level of peptide-specific IgG was measured by an enzyme-linked immunosorbent assay (ELISA). Briefly, each peptide was dissolved in dimethyl sulfoxide (DMSO) and stored at −20° C. The peptide (20 μg/well) diluted with 0.1 M carbonate buffer containing disuccinimidyl suberate (DSS) (PIERCE, Rockford, Ill.) as a chemical crosslinker was bound to an ELISA plate. The wells were washed 3 times with 0.05% Tween 20/PBS (PBST). Then, the plate was blocked overnight at 4° C. with Block Ace (Yukijirushi, Tokyo, Japan). A serum sample was diluted 1:100, 1:200 or 1:400 with 0.05% Tween 20/Block Ace, and 100 μl/well of the sample was added to each well. After the sample was incubated at 37° C. for 2 hours, the plate was washed 9 times with PBST, and further incubated at 37° C. for 2 hours with 100 μl/well of a 1:1000 diluted rabbit anti-human IgG (γ-chain specific) (DAKO Glostrup, Denmark). After the plate was washed 9 times, 100 μl/well of a 1:100 diluted anti-rabbit IgG-conjugated horseradish peroxidase-dextran polymer (En Vision, DAKO) was added to each well, and then the plate was incubated at room temperature for 40 minutes. After the plate was washed, 100 μl/well of a tetramethylbenzidine substrate solution (KPL, Guildford, UK) was added, and the reaction was stopped by the addition of 1.0 M phosphoric acid.
The cross reactivity of two antibodies reactive to the peptides derived from HCV-1b was examined. The sera obtained from 60 HCV patients and patients who are not included in the cohort study (CH, n=22, LC, n=21 and HCC, n=17) were examined for reactivity to the peptides of the core 35-44 (C-35) and NS5A 2132-2140 (NS5A-2132). The sera were also obtained from 24 subjects with an autoimmune disease, 17 cases of HBV infection and 10 cases of HTLV-1 infection. The sera obtained from 37 HDs were used as a negative control. The level of peptide-reactive IgG contained in the serially diluted serum samples was measured by ELISA. The results are reported by the absorbance (OD) of each sample. The representative results of OD at a serum dilution of 100:1 are shown. The cut-off value was set at 0.093 (mean+2 SD of OD from HDs). The statistical analysis was carried out using the χ^2-test. Values of P<0.05 were considered statistically significant.
Then, the correlation between the HLA-class IA phenotype and the level of anti-C-35 IgG or anti-NS5A-2132 IgG was examined in 29 patients with a disease associated with HCV. The HLA-class IA phenotype was determined by a standard serological method. Nine patients were HLA-A2^+, 13 patients were A24^+, and the remaining 7 patients were A2^−-A24^−. The levels of Anti-C-35 and anti-NS5A-2132 were measured by a standard ELISA and the OD value of each patient at a serum dilution of 100:1 is shown in the figure.
Also the correlation between the HCV genotype and the level of anti-C-35 IgG or anti-NS5A-2132 IgG was examined in a double blind study in patients infected with HCV-1b (n=29), HCV-2a (n=16) and HCV-2b (n=3). The HCV genotype was determined by directly sequencing HCV in the serum of the patient. The levels of anti-C-35 and anti-NS5A-2132 were measured by a standard ELISA and the OD value of each patient at a serum dilution of 100:1 is shown. The cut-off value was set at 0.093 (mean+2 SD of OD from HDs).
Then, the sera of CH (n=24), LC (n=22), HCC (n=26) and HDs (n=9) were newly prepared and the level of anti-NS5A-2132 IgG was measured (FIG. 26). […]

[1] = out of 60, cut-off 0.093 OD, serum dilution 100:1

YLLPRRGPRL [No. 40]
IgG level among the 3 groups (CH, LC and HCC patients): no significant difference in the IgG level among the 3 groups | detection of the anti-peptide antibody by HLA-class IA phenotype (29 patients: HLA-A2+, A24+, A2-A24-): detected in the majority of the patients | positivity of sera from the other (not HCV) groups (autoimmune disease, HBV, HTLV-1): not positive | number of HTLV-1+ subjects with a significant level of anti-peptide IgG (out of 10 cases): 8 | number of HCV-positive patients with a significant level of anti-peptide IgG [1]: 56 | percentage of HCV-positive patients with a significant level of anti-peptide IgG [1]: 93.3% | number of patients with the anti-peptide antibody detected (patients infected with HCV-1b, out of 30): 26 | number of patients with the anti-peptide antibody detected (patients infected with HCV-2a, out of 15 (C-35) or 16 (NS5A-2132)): 15 | number of patients with the anti-peptide antibody detected (patients infected with HCV-2b, out of 3): 3
